Each compound was assayed on IL17A (assay: skin Resident Immune Cell Assay (sRICA), Th17 model, IL17A protein in media). Conditions: 100 uM solution in 1% DMSO/OD applied topically to human skin; media collected 24 hours after Th17 activation.
Type: cell-based
Protocol: A skin Resident Immune Cell Assay (sRICA) was used to test compounds for reduction of IL-17A protein upregulation in the Th17 sRICA model. In this model, human surgical skin waste was cultured in a transwell system, with the dermis in contact with cell culture media and the stratum corneum exposed to air. To perform the assay, each human skin sample was defatted and dermatomed to 750μm. Next, 8 mm punch biopsies were obtained and placed in a membrane transwell. The transwells were inserted into culture wells with complete media, and a cocktail of cytokines and antibodies were added to promote skin resident immune cell polarization.
RORγt inhibitors were prepared as a 100 uM solution in 1% DMSO/OD. […] of the prepared topical solution was applied to sRICA wells prepared for topical drug evaluation. Drugs were allowed to penetrate the skin overnight, for up to 24 hours prior to Th17 activation. Media was collected 24 hours after Th17 activation for IL17A protein assessment. IL17A protein was evaluated using the Quanterix IL17A detection kit on the SiMoA platform (via CRO Translational Biosciences). There was significant upregulation of IL17A with Th17 activation. Each study was normalized to the % max of IL17A production (i.e. the average IL17A concentration of Th17 activated skin alone) was set to 100%, all other values (untreated no activation and treated samples) were obtained as a percentage of this. […]

SMILES	inhibition at 100 µM [%]	Activity in sRICA (% inhibition of IL17A) [%]
COc1ccc2c(c1)CCN(C(=O)c1cc(O)no1)[C@H]2C(=O)Nc1ccc(C(C)(C)C)c(F)c1 (stereo in doubt) [N-(4-tert-butyl-3-fluorophenyl)-2-((3-hydroxy-1,2-oxazol-5-yl)carbonyl)-6-methoxy-1,2,3,4-tetrahydroisoquinoline-1-carboxamide]	36	
COc1ccc2c(c1)CCN(C(=O)Cc1cc(O)no1)[C@H]2C(=O)Nc1cc(F)c(C(C)(C)C)c(F)c1 [(1R)-N-(4-tert-butyl-3,5-difluorophenyl)-2-((3-hydroxy-1,2-oxazol-5-yl)acetyl)-6-methoxy-1,2,3,4-tetrahydroisoquinoline-1-carboxamide]	-10.9	
COc1ccc2c(c1)CCN(C(=O)Cc1cc(O)no1)[C@H]2C(=O)Nc1cc(F)c(C(C)(C)COCC2CC2)c(F)c1 [(1R)-N-(4-(1-(cyclopropyl-methoxy)-2-methylpropan-2-yl)-3,5-difluorophenyl)-2-((3-hydroxy-1,2-oxazol-5-yl)acetyl)-6-methoxy-1,2,3,4-tetrahydro-isoquinoline-1-carboxamide]	61.7	
COCc1ccc([C@@H](NC(=O)[C@@H]2CNC(=O)C2)C(=O)Nc2ccc(CC(C)(C)C)c(F)c2)cc1 [(3S)-N-((1R)-2-((4-(2,2-dimethylpropyl)-3-fluorophenyl)amino)-1-(4-(methoxymethyl)phenyl)-2-oxoethyl)-5-oxopyrrolidine-3-carboxamide]	52.9	
COCC(C)(C)c1ccc(NC(=O)[C@H]2c3ccc(OC)cc3CCN2C(=O)c2cc(O)no2)cc1F [(1R)-N-(3-fluoro-4-(1-methoxy-2-methylpropan-2-yl)phenyl)-2-((3-hydroxy-1,2-oxazol-5-yl)carbonyl)-6-methoxy-1,2,3,4-tetrahydroisoquinoline-1-carboxamide]	55	
CCOc1ccc2c(c1)CCN(C(=O)Cc1cc(O)no1)[C@H]2C(=O)Nc1cc(F)c2c(c1)CCC2(C)C [(1R)-6-ethoxy-N-(7-fluoro-1,1-dimethyl-2,3-dihydro-1H-inden-5-yl)-2-((3-hydroxy-1,2-oxazol-5-yl)acetyl)-1,2,3,4-tetrahydroisoquinoline-1-carboxamide]	67.9	
COCc1ccc([C@@H](NC(=O)Cn2cnccc2=O)C(=O)Nc2ccc(C(C)(C)C)c(F)c2)cc1	72.1	
COCc1ccc([C@@H](NC(=O)[C@H]2CNC(=O)C2)C(=O)Nc2cc(F)c(C(C)(C)C)c(F)c2)cc1 [(3R)-N-((1R)-2-((4-tert-butyl-3,5-difluorophenyl)amino)-1-(4-(methoxymethyl)phenyl)-2-oxoethyl)-5-oxopyrrolidine-3-carboxamide]	63.1	
CCOCC(C)(C)c1c(F)cc(NC(=O)[C@H]2c3ccc(OC)cc3CCN2C(=O)c2cc(O)no2)cc1F [(1R)-N-(4-(1-ethoxy-2-methylpropan-2-yl)-3,5-difluorophenyl)-2-((3-hydroxy-1,2-oxazol-5-yl)carbonyl)-6-methoxy-1,2,3,4-tetrahydro-isoquinoline-1-carboxamide]	56.1	
CCOCC(C)(C)c1c(F)cc(NC(=O)[C@H]2c3ccc(OC)cc3CCN2C(=O)Cc2cc(O)no2)cc1F [(1R)-N-(4-(1-ethoxy-2-methylpropan-2-yl)-3,5-difluorophenyl)-2-((3-hydroxy-1,2-oxazol-5-yl)acetyl)-6-methoxy-1,2,3,4-tetrahydro-isoquinoline-1-carboxamide]	54.9	
COCc1ccc([C@@H](NC(=O)[C@H]2CNC(=O)C2)C(=O)Nc2ccc(C(C)(C)C)c(F)c2)cc1 [(3R)-N-((1R)-2-((4-tert-butyl-3-fluorophenyl)amino)-1-(4-(methoxymethyl)phenyl)-2-oxoethyl)-5-oxopyrrolidine-3-carboxamide]	74.1	
Cn1ncc2cc([C@@H](NC(=O)[C@@H]3CNC(=O)C3)C(=O)Nc3ccc([Si](C)(C)C)c(F)c3)ccc21 [drawing 89, (3S)-N-(2-((3-fluoro-4-(trimethylsilyl)phenyl)amino)-1-(1-methyl-1H-indazol-5-yl)-2-oxoethyl)-5-oxopyrrolidine-3-carboxamide]		36.72
COCc1ccc([C@@H](NC(=O)Cc2nnc(C)o2)C(=O)Nc2ccc(C(C)(C)C)c(F)c2)cc1 [(2R)-N-(4-tert-butyl-3-fluorophenyl)-2-(4-(methoxymethyl)phenyl)-2-(((5-methyl-1,3,4-oxadiazol-2-yl)acetyl)amino)acetamide]	62	

Same assay, conditions: Homo sapiens, 24 h, 100 uM solution in 1% DMSO/OD applied topically to human skin; media collected 24 hours after Th17 activation

SMILES	inhibition at 100 µM [%]
COCc1ccc([C@@H](NC(=O)Cc2nnc(C)o2)C(=O)Nc2cc(F)c([Si](C)(C)C)c(F)c2)cc1 [(2R)-N-(3,5-difluoro-4-(trimethylsilyl)phenyl)-2-(4-(methoxymethyl)phenyl)-2-(((5-methyl-1,3,4-oxadiazol-2-yl)acetyl)amino)acetamide]	60.8
Cn1ncc2cc(C(NC(=O)[C@@H]3CNC(=O)C3)C(=O)Nc3ccc([Si](C)(C)C)c(F)c3)ccc21 (stereo partly drawn) [(3S)-N-(2-((3-fluoro-4-(trimethylsilyl)phenyl)amino)-1-(1-methyl-1H-indazol-5-yl)-2-oxoethyl)-5-oxopyrrolidine-3-carboxamide]	58.3
COCc1ccc([C@@H](NC(=O)Cn2c(=O)cc[nH]c2=O)C(=O)Nc2ccc([Si](C)(C)C)c(F)c2)cc1	40.7
COCc1ccc2c(c1)CCN(C(=O)CCCC(=O)O)[C@H]2C(=O)Nc1cc(F)c([Si](C)(C)C)c(F)c1 [5-((1R)-1-((3,5-difluoro-4-(trimethylsilyl)phenyl)carbamoyl)-6-methoxymethyl-3,4-dihydroisoquinolin-2(1H)-yl)-5-oxopentanoic acid]	77.4
COCc1ccc([C@@H](NC(=O)CCS(C)(=O)=O)C(=O)Nc2ccc([Si](C)(C)C)c(F)c2)cc1 [N-((1R)-2-((3-fluoro-4-(trimethylsilyl)phenyl)amino)-1-(4-(methoxymethyl)phenyl)-2-oxoethyl)-3-(methylsulfonyl)propanamide]	67.4
COCc1ccc([C@@H](NC(=O)CCCC(=O)O)C(=O)Nc2cc(F)c([Si](C)(C)C)c(F)c2)cc1 [5-(((1R)-2-((3,5-difluoro-4-(trimethylsilyl)phenyl)amino)-1-(4-(methoxymethyl)phenyl)-2-oxoethyl)amino)-5-oxopentanoic acid]	26.7
COCc1ccc([C@@H](NC(=O)N2CC(O)C2)C(=O)Nc2ccc([Si](C)(C)C)c(F)c2)cc1 [N-((1R)-2-((3-fluoro-4-(trimethylsilyl)phenyl)amino)-1-(4-(methoxymethyl)phenyl)-2-oxoethyl)-3-hydroxyazetidine-1-carboxamide]	54.6
COCc1ccc([C@@H](NC(=O)CN2C(=O)CNC2=O)C(=O)Nc2ccc([Si](C)(C)C)c(F)c2)cc1 [(2R)-2-(((2,5-dioxoimidazolidin-1-yl)acetyl)amino)-N-(3-fluoro-4-(trimethylsilyl)phenyl)-2-(4-(methoxymethyl)phenyl)acetamide]	36.3
COCc1ccc([C@@H](NC(=O)Cn2ccc(=O)[nH]c2=O)C(=O)Nc2ccc([Si](C)(C)C)c(F)c2)cc1 [(2R)-2-(((2,4-dioxo-3,4-dihydropyrimidin-1(2H)-yl)acetyl)amino)-N-(3-fluoro-4-(trimethylsilyl)phenyl)-2-(4-(methoxymethyl)phenyl)acetamide]	68.6
COCc1ccc([C@@H](NC(=O)Cc2cc(O)no2)C(=O)Nc2cc(F)c([Si](C)(C)C)c(F)c2)cc1 [(2R)-N-(3,5-difluoro-4-(trimethylsilyl)phenyl)-2-(((3-hydroxy-1,2-oxazol-5-yl)acetyl)amino)-2-(4-(methoxymethyl)phenyl)acetamide]	53.9
COc1ccc2c(n1)CCN(C(=O)Cc1cc(O)no1)[C@H]2C(=O)Nc1cc(F)c([Si](C)(C)C)c(F)c1 [(5R)-N-(3,5-difluoro-4-(trimethylsilyl)phenyl)-6-((3-hydroxy-1,2-oxazol-5-yl)acetyl)-2-methoxy-5,6,7,8-tetrahydro-1,6-naphthyridine-5-carboxamide]	49.4
COc1ccc2c(c1)CCN(C(=O)Cc1cc(O)no1)[C@H]2C(=O)Nc1ccc([Si](C)(C)C)c(C#N)c1 [(1R)-N-(3-cyano-4-(trimethylsilyl)phenyl)-2-((3-hydroxy-1,2-oxazol-5-yl)acetyl)-6-methoxy-1,2,3,4-tetrahydroisoquinoline-1-carboxamide]	42.8
COc1ccc([C@@H](NC(=O)c2cc(O)no2)C(=O)Nc2ccc([Si](C)(C)C)c(F)c2)cc1	55.3
CN(C(=O)c1cc(O)no1)[C@@H](C(=O)Nc1cc(F)c([Si](C)(C)C)c(F)c1)C1CCOCC1 (stereo in doubt) [N-(2-((3,5-difluoro-4-(trimethylsilyl)phenyl)amino)-2-oxo-1-(tetrahydro-2H-pyran-4-yl)ethyl)-3-hydroxy-N-methyl-1,2-oxazole-5-carboxamide]	82.5
COCc1ccc([C@@H](NC(=O)Cc2nnc(C)o2)C(=O)Nc2ccc([Si](C)(C)C)c(F)c2)cc1 [(2R)-N-(3-fluoro-4-(trimethylsilyl)phenyl)-2-(4-(methoxymethyl)phenyl)-2-(((5-methyl-1,3,4-oxadiazol-2-yl)acetyl)amino)acetamide]	35.5

— patent US20220409643A1, “ROR Gamma T Inhibitors and Topical Uses Thereof” (Dermira, inc., priority 2019, published 2022)
